Tested on: NALM cells
Assay: CAR-T in vitro cytotoxicity assay, CD19.CAR T cells
Assay type: cell-based, human
Settings: 1:5 E:T, 72 hours, n=3
Procedure: Primary T cells were activated as described (Example 3), transduced with a lentivirus encoding for either a CD19.CAR or a GD2.CAR co-expressing shUSP16 #1, shUSP16 #2 or a scrambled shRNA (Control). Cells were cultured in IL-2 and sorted between days 6-13 for EGFRt. At day 16 cytotoxicity assays were performed. Briefly, cells were counted and 100,000 T cells (adjusted for EGFR expression) were plated at 1:5 Effector:Target (E:T) ratio. At 72 hours, the mixture of tumor cells and T cells were collected, stained for CD3-PE, CD8-BV510, CD19- or GD2-APC, EGFR-AF488 and Sytox and counted by flow cytometry (MACSQuant, Miltenyi Biotec) (FIGS. 30A and 30B). Counting beads (CountBright Absolute Counting beads, Invitrogen) were added before acquisition and absolute number was calculated as following (number of cell events/number of bead events)×(assigned bead count of the lot (beads/50 ul)/volume of sample (ul))=concentration of sample as cells/ul). NALM cells were used as target cells for CD19.CAR T cells and CHLA-55 cells were used as target for GD2.CAR T cells. Three different primary T cell cultures were tested for CD19 and GD2 CAR.

Substance	T cell number	residual tumor cells (NALM)
shUSP16 #1: shRNA targeting USP16, 5′-GACTGTAAGACTGACAATAAA-3′ (SEQ ID NO: 8), pSIH backbone or co-expressed in CAR plasmid	46674	29688
shUSP16 #2: shRNA targeting USP16, 5′-TATATCAGTTCACCCGTAAT-3′ (SEQ ID NO: 9), pSIH backbone or co-expressed in CAR plasmid	58732	28462
